Bridge positions count the residues as written; N and C are the ends. Square brackets hold non-standard residues; d marks the D form. Peptide text beside a SMILES is read from it. Ahx = NCCCCCC(=O)O

Experiment [1] addresses T1, Neuropeptide Y receptor type 4 (Homo sapiens, UniProt P50391). Kind of experiment: Activation of human Y4R expressed in HEK293 cells assessed as inhibition of isoproterenol-induced increase in intracellular cAMP levels by calcium 5 dye-based FLIPR assay. The class given is functional, cell-based. As to conditions: for pEC50: hek293.
The target in experiment [2] is T2, Neuropeptide Y receptor type 5 (Homo sapiens, UniProt Q15761).
T2 sequence (Q15761 whole entry): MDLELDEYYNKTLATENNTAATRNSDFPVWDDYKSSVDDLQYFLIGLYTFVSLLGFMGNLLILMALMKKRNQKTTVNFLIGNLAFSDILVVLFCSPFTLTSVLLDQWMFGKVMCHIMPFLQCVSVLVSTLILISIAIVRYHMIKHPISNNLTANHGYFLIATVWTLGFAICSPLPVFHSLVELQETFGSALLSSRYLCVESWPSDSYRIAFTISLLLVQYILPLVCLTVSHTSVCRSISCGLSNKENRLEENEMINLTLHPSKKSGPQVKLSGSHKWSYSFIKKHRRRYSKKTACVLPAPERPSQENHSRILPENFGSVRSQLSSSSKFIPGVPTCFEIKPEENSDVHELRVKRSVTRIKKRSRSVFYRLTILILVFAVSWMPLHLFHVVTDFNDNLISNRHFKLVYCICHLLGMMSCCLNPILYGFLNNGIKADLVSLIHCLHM
Kind of experiment: Activation of human Y5R expressed in HEK293 cells assessed as inhibition of isoproterenol-induced increase in intracellular cAMP levels by calcium 5 dye-based FLIPR assay. It counts as functional, cell-based.

The species named for experiment [3] is Homo sapiens. Kind of experiment: Selectivity ratio of Ki for human Y1R expressed in BHK-21 cell membranes to Ki for human Y2R expressed in CHO cell membranes. The class given is cell-based.
For experiment [4], the target named is T3, Neuropeptide Y receptor type 2 (Homo sapiens, UniProt P49146).
T3 sequence (P49146 whole entry): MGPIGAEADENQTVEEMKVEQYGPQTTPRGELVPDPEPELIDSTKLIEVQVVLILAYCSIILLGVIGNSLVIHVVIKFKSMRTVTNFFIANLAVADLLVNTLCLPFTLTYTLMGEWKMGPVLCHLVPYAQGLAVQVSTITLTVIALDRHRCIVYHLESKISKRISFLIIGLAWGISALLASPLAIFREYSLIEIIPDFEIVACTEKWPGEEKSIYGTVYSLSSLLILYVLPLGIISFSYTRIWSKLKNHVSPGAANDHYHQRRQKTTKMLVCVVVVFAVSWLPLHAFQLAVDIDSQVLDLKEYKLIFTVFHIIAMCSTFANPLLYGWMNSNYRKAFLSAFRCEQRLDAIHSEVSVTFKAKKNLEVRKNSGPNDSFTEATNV
Kind of experiment: Displacement of [125I]-PYY(1 to 36 residues) from human Y2R expressed in CHO cell membranes after 2 hrs by scintillation proximity assay.

Experiment [5] is filed under the species Homo sapiens. Kind of experiment: Selectivity ratio of Ki for human Y4R expressed in CHO-K1 cell membranes to Ki for human Y2R expressed in CHO cell membranes. The class given is cell-based.
Experiment [6] has as its target T2, Neuropeptide Y receptor type 5. Kind of experiment: Displacement of [125I]-PYY(1 to 36 residues) from human Y5R expressed in HEK293 cell membranes after 2 hrs by scintillation proximity assay.
Experiment [7] has as its target T4, Neuropeptide Y receptor type 1 (Homo sapiens, UniProt P25929).
T4 sequence (P25929 whole entry): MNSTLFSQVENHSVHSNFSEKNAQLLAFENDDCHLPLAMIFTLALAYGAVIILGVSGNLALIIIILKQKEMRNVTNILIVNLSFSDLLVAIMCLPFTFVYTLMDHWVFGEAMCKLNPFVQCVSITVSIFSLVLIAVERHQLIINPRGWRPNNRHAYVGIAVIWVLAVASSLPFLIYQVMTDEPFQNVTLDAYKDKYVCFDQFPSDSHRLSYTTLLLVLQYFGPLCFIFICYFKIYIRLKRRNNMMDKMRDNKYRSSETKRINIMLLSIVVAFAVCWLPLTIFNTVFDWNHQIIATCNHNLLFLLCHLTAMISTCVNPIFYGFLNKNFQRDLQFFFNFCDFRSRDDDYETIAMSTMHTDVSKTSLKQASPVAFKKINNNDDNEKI
Kind of experiment: Activation of human Y1R expressed in HEK293 cells assessed as inhibition of isoproterenol-induced increase in intracellular cAMP levels by calcium 5 dye-based FLIPR assay. It counts as functional, cell-based. As to conditions: for pEC50: hek293; for EC50: read-out: EC50.

For experiment [8], the target named is T3, Neuropeptide Y receptor type 2. Kind of experiment: Activation of human Y2R expressed in HEK293 cells assessed as inhibition of isoproterenol-induced increase in intracellular cAMP levels by calcium 5 dye-based FLIPR assay. It counts as functional, cell-based. Particulars: read-out: EC50.
For experiment [9], the target named is T1, Neuropeptide Y receptor type 4. Kind of experiment: Displacement of [125I]-PP from human Y4R expressed in CHO-K1 cell membranes after 2 hrs by scintillation proximity assay.
The species named for experiment [10] is Homo sapiens. Kind of experiment: Selectivity ratio of Ki for human Y5R expressed in HEK293 cell membranes to Ki for human Y2R expressed in CHO cell membranes. The class given is cell-based.
Experiment [11] deals with T4, Neuropeptide Y receptor type 1. Kind of experiment: Displacement of [125I]-PYY(1 to 36 residues) from human Y1R expressed in BHK-21 cell membranes after 2 hrs by scintillation proximity assay.

T1 sequence (P50391 whole entry): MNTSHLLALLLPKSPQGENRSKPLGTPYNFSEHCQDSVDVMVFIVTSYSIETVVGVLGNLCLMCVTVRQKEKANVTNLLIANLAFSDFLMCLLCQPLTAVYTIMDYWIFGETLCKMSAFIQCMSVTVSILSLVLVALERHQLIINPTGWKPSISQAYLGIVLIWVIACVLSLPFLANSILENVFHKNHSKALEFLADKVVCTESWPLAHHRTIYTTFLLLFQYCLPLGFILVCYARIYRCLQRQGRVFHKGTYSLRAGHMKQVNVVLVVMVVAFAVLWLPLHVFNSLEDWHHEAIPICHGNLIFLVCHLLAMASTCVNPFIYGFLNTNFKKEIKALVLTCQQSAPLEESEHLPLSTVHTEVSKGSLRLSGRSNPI

For `CC[C@H](C)[C@@H]1NC(=O)[C@@H](NC(=O)[C@@H](N)Cc2ccc(O)cc2)CCC(=O)NCCCC[C@@H](C(=O)N[C@H](C(=O)N[C@H](C(=O)N[C@@H](CCCNC(=N)N)C(=O)N[C@@H](CCC(N)=O)C(=O)N[C@@H](CCCNC(=N)N)C(=O)N[C@@H](Cc2ccc(O)cc2)C(=O)O)[C@@H](C)O)C(C)C)NC(=O)[C@H](CC(N)=O)NC(=O)[C@H](CC(C)C)NC(=O)[C@H](Cc2ccc(O)cc2)NC(=O)[C@H](Cc2cnc[nH]2)NC(=O)[C@H](CCCNC(=N)N)NC(=O)CCCCCNC(=O)[C@H](CCCCN)NC1=O`, the EC50 in [1] is > 1000 nM; in experiment [2], 400 nM; in [7], > 1000 nM; in experiment [8] it was 2 nM. For the same molecule, the pEC50 in experiment [1] and in [7] was < 6 in each case. Besides, the Ratio Ki in the experiment listed under Homo sapiens [3] stood at 1000; in the experiment listed under Homo sapiens [5] it was 39; in the experiment filed under Homo sapiens [10], 610. Moreover, the Ki in experiment [4] amounted to 1.3 nM; in experiment [6], 790 nM; in experiment [9] it was 50 nM; in experiment [11] it was 1300 nM.

On to `CC[C@H](C)[C@H](NC(=O)[C@H](Cc1ccc(O)cc1)NC(=O)[C@H](Cc1cnc[nH]1)NC(=O)[C@H](CCCNC(=N)N)NC(=O)CCCCCNC(=O)[C@H](CCCCN)NC(=O)[C@H](CO)NC(=O)[C@@H]1CCCN1C(=O)[C@@H](N)Cc1ccc(O)cc1)C(=O)N[C@@H](CC(N)=O)C(=O)N[C@@H](CC(C)C)C(=O)N[C@H](C(=O)N[C@H](C(=O)N[C@@H](CCCNC(=N)N)C(=O)N[C@@H](CCC(N)=O)C(=O)N[C@@H](CCCNC(=N)N)C(=O)N[C@@H](Cc1ccc(O)cc1)C(=O)O)[C@@H](C)O)[C@@H](C)CC` (H-YPSK[Ahx]RHYINLITRQRY-OH), for which the Ki came out at 13 nM in [4], 1300 nM in experiment [6], 200 nM in experiment [9] and 400 nM in [11].

Consider `CC[C@H](C)[C@@H]1NC(=O)[C@H](Cc2ccc(O)cc2)NC(=O)[C@H](Cc2cnc[nH]2)NC(=O)[C@H](CCCNC(=N)N)NC(=O)CCCCCNC(=O)[C@H](CCCCN)NC(=O)[C@H](CO)NC(=O)[C@@H](NC(=O)[C@@H](N)Cc2ccc(O)cc2)CCC(=O)NCCCC[C@@H](C(=O)N[C@H](C(=O)N[C@H](C(=O)N[C@@H](CCCNC(=N)N)C(=O)N[C@@H](CCC(N)=O)C(=O)N[C@@H](CCCNC(=N)N)C(=O)N[C@@H](Cc2ccc(O)cc2)C(=O)O)[C@@H](C)O)[C@@H](C)CC)NC(=O)[C@H](CC(N)=O)NC1=O` (H-YESK[Ahx]RHYINKITRQRY-OH; lactam 2-11), for which the EC50 in experiment [1] was > 1000 nM; in experiment [2] it was 500 nM; in experiment [7], > 1000 nM; in [8], 7.6 nM. For the same molecule, the pEC50 in experiment [1] and in [7] was < 6 in each case. Also, the Ratio Ki came to 250 in the experiment listed under Homo sapiens [3], 13 in the experiment filed under Homo sapiens [5] and 320 in the experiment filed under Homo sapiens [10]. Moreover, the Ki in experiment [4] was 2 nM; in experiment [6] it was 630 nM; in [9] it was 25 nM; in [11], 500 nM.

In the case of `CC[C@H](C)[C@H](NC(=O)[C@H](Cc1ccc(O)cc1)NC(=O)[C@H](Cc1c[nH]cn1)NC(=O)[C@H](CCCN=C(N)N)NC(=O)CCCCCNC(=O)[C@H](CCCCN)NC(=O)[C@H](CO)NC(=O)[C@@H]1CCCN1C(=O)[C@@H](N)Cc1ccc(O)cc1)C(=O)N[C@@H](CC(N)=O)C(=O)N[C@@H](CC(C)C)C(=O)N[C@H](C(=O)N[C@H](C(=O)N[C@@H](CCCN=C(N)N)C(=O)N[C@@H](CCC(N)=O)C(=O)N[C@@H](CCCN=C(N)N)C(=O)N[C@@H](Cc1ccc(O)cc1)C(=O)O)[C@@H](C)O)[C@@H](C)CC` (H-YPSK[Ahx]RHYINLITRQRY-OH), the values for the Ratio Ki in the experiment filed under Homo sapiens [3], in the experiment listed under Homo sapiens [5] and in the experiment listed under Homo sapiens [10] were 31, 15 and 100, respectively.

Take `CC[C@H](C)[C@H](NC(=O)[C@H](Cc1ccc(O)cc1)NC(=O)[C@H](CCCNC(=N)N)NC(=O)[C@H](CCCNC(=N)N)NC(=O)[C@H](CC(C)C)NC(=O)[C@H](CC(=O)O)NC(=O)[C@H](C)NC(=O)[C@H](C)NC(=O)[C@H](Cc1ccc(O)cc1)NC(=O)[C@H](CCC(N)=O)NC(=O)[C@H](C)NC(=O)[C@H](CCSC)NC(=O)[C@H](CCC(N)=O)NC(=O)[C@H](CCC(=O)O)NC(=O)[C@@H]1CCCN1C(=O)[C@@H](NC(=O)[C@H](C)NC(=O)[C@H](CC(N)=O)NC(=O)[C@H](CC(=O)O)NC(=O)CNC(=O)[C@@H]1CCCN1C(=O)[C@H](Cc1ccc(O)cc1)NC(=O)[C@@H](NC(=O)[C@@H]1CCCN1C(=O)[C@H](CCC(=O)O)NC(=O)[C@H](CC(C)C)NC(=O)[C@@H]1CCCN1C(=O)[C@H](C)N)C(C)C)[C@@H](C)O)C(=O)N[C@@H](CC(N)=O)C(=O)N[C@@H](CCSC)C(=O)N[C@@H](CC(C)C)C(=O)N[C@H](C(=O)N[C@@H](CCCNC(=N)N)C(=O)N[C@@H](CCC(N)=O)C(=O)N[C@@H](CCCNC(=N)N)C(=O)N[C@@H](Cc1ccc(O)cc1)C(=O)O)[C@@H](C)O`: the EC50 in experiment [1] stood at 0.2 nM; in [2], 6.3 nM; in experiment [7], 16 nM; in experiment [8], 16 nM. Besides, the Ratio Ki in the experiment listed under Homo sapiens [3] was determined as 6.3; in the experiment listed under Homo sapiens [5], 0.02; in the experiment filed under Homo sapiens [10], 0.21. In addition, the Ki in experiment [4] was determined as 6.3 nM; in experiment [6] it was 1.3 nM; in [9], 0.1 nM; in [11], 40 nM.

As to `CC[C@H](C)[C@@H]1NC(=O)[C@H](CC(C)C)NC(=O)[C@H](CC(N)=O)NC(=O)[C@@H](NC(=O)[C@H](Cc2ccc(O)cc2)NC(=O)[C@H](Cc2cnc[nH]2)NC(=O)[C@H](CCCNC(=N)N)NC(C)=O)CCC(=O)NCCCC[C@@H](C(=O)N[C@@H](CCCNC(=N)N)C(=O)N[C@@H](CCC(N)=O)C(=O)N[C@@H](CCCNC(=N)N)C(=O)N[C@@H](Cc2ccc(O)cc2)C(=O)O)NC1=O` (Ac-RHYENLIKRQRY-OH; lactam 4-8), the figures for the Ratio Ki in the experiment filed under Homo sapiens [3], in the experiment listed under Homo sapiens [5] and in the experiment filed under Homo sapiens [10] were > 130, 20 and 63, respectively. The Ki is 79 nM in [4], 5000 nM in experiment [6], 1600 nM in experiment [9] and > 10000 nM in experiment [11]. For the same molecule, the negative logarithm of the Ki (pKi) in [11] (bhk-21) was < 5.
